Legend:
[1] = target: T1, sarcoplasmic reticulum Ca^2+-ATPase (Canis lupus familiaris, UniProt O46674); assay: Sarcoplasmic reticulum Ca2+-ATPase activity of myocardium collected after in vivo drug administration (Pi colorimetry); format: biochemical, dog
T1 construct: sarcoplasmic reticulum from both post-ischemic and non-ischemic regions of the left ventricle of dogs; from tissue; host or cells: dog left ventricle (LAD occluded 30 min, reperfused 30 min), sarcoplasmic reticulum fraction
Method: After hemodynamic stability is established following operation, the dissected portion of LAD was occluded for 30 minutes and then reperfused for 1 hour. At the same time, the cardiac function (%SS) in the above-described ischemic/reperfused region was continuously monitored through-out the protocol.
The animals were randomly grouped into two groups, one consisting of animals to be administered with the medicament of the present invention (Drug administration group; N=6) and the other of control group (N-6). The dogs of drug administration group were intravenously administered with the medicament of the present invention (3 μg/kg) into the right femoral vein 5 minutes before reperfusion, followed by continuous infusion at 30 μg/kg/hr. Dogs of the control group were administered with the equal amount of saline.
After 1-hour reperfusion, their hearts were isolated and the myocardium in post-ischemic region and non-ischemic region of the left ventricles were collected from which the fractions having sarcoplasmic reticulum Ca^2+-ATPase activity were extracted to be subjected to protein assay (Bradford method) and stored at −80° C. The defrozen fractions were used to determine Ca^2+-ATPase activity. The activity was determined by measuring the amount of the generated inorganic phosphate (Pi) by colorimetry using phosphor/molybdic acid and malachite green (μmoles Pi/mg protein/min).
Next, results obtained from the Ca^2+-ATPase activity assay of the sarcoplasmic reticulum collected from each region are shown in FIGS. 2 and 3.

[2] = system: ischemic/reperfused myocardium; assay: Regional cardiac function (%SS) in brief-ischemic/reperfused myocardium in dogs; format: in vivo; details: dog; 30 min LAD occlusion, 1 h reperfusion; 3 μg/kg i.v. 5 min before reperfusion then 30 μg/kg/hr infusion
Method: The chest of mongrel dogs (adult, male and female) was opened under anesthesia with pentobarbital (30 mg/kg, i.v.) and a portion of the left coronary anterior descending (LAD) was dissected. A catheter-tip-pressure transducer (Millar; MPC-500) was inserted from the left carotidartery into the left ventricle to determine the left ventricular pressure and its first differential value (dP/dt). A pair of crystal probes were mounted in the LAD region to determine changes in regional segment length. Diastolic segment length (EDL; threshold point of dP/dt) and systolic segment length (ESL; dP/dt(−) max point) were determined from the waveform of dP/dt, and the regional segment shortening (%SS) in the ischemic/reperfused myocardium was calculated as follows: %SS=(EDL−ESL)/EDL×100. After hemodynamic stability is established following operation, the dissected portion of LAD was occluded for 30 minutes and then reperfused for 1 hour. At the same time, the cardiac function (%SS) in the above-described ischemic/reperfused region was continuously monitored through-out the protocol. The animals were randomly grouped into two groups, one consisting of animals to be administered with the medicament of the present invention (Drug administration group; N=6) and the other of control group (N-6). […]

[3] = target: T1, sarcoplasmic reticulum Ca^2+-ATPase; assay: Direct effect in vitro on sarcoplasmic reticulum Ca2+-ATPase activity; format: biochemical, dog; details: preincubation 37° C. 5 min; for sarcoplasmic reticulum Ca^2+-ATPase activity, post-ischemic region, in vitro: control 0.045±0.005; for sarcoplasmic reticulum Ca^2+-ATPase activity, non-ischemic region, in vitro: control 0.057±0.003
Method: The Ca^2+-ATPase activity of the sarcoplasmic reticulum from both post-ischemic and non-ischemic regions of the left ventricle of dogs, in which LAD was occluded for 30 minutes followed by reperfusion for 30 minutes, was measured in the same manner as in Example 1. The direct effect of the medicament of the present invention on the sarcoplasmic reticulum was examined in vitro by determining the amount of inorganic phophorous generated during the reaction for 15 minutes, which was triggered by adding ATP to the reaction solution, with the preincubated medicament of the present invention at 37° C. for 5 minutes.
For each of post-ischemic region and non-ischemic region (N=6), three groups were tested; control group which was preincubated with H2O, groups with low level dosage (10^−7 M of the medicament of the present invention was administered), and group with high level dosage (10^−6 M of the medicament of the present invention was administered)

T1 sequence (O46674 whole entry, the tested form may be a part): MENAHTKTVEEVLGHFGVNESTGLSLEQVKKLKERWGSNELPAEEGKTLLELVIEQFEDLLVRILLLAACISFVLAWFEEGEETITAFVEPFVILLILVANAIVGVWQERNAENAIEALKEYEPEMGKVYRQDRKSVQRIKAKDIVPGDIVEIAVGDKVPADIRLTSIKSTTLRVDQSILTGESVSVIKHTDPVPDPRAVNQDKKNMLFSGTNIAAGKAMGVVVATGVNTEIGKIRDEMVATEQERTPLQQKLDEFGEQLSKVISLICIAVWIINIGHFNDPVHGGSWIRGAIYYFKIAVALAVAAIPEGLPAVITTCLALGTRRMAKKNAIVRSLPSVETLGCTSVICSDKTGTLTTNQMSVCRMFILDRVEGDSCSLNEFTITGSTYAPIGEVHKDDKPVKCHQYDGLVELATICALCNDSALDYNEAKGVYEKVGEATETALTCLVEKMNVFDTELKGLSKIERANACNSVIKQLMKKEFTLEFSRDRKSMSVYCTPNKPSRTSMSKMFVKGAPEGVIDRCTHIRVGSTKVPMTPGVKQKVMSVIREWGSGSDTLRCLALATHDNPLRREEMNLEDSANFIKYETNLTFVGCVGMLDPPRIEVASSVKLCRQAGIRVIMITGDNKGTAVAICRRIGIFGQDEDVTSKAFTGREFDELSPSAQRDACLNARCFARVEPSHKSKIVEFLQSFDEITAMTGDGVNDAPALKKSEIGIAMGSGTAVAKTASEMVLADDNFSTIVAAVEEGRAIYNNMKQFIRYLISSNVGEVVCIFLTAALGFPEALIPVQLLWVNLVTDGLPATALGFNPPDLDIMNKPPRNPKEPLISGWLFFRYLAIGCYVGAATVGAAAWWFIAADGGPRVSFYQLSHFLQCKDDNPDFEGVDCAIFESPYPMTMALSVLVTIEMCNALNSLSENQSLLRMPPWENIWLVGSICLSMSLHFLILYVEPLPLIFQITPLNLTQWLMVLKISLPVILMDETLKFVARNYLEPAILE

Row | Structure (SMILES) | inhibition of the ATPase activity of the sarcoplasmic reticulum fraction ([1]; 1 μM) | regional cardiac function (%SS) in post-reperfusion region compared to control group [2] | sarcoplasmic reticulum Ca^2+-ATPase activity, post-ischemic region ([1]; Ca^2+ 10 μM, dog dosed in vivo 3 μg/kg i.v. + 30 μg/kg/hr, control group 0.070±0.004) [μmol Pi/mg min] | sarcoplasmic reticulum Ca^2+-ATPase activity, non-ischemic region ([1]; Ca^2+ 10 μM, dog dosed in vivo 3 μg/kg i.v. + 30 μg/kg/hr, control group 0.089±0.009) [μmol Pi/mg min] | sarcoplasmic reticulum Ca^2+-ATPase activity, post-ischemic region, in vitro ([3]; 10^−6 M (high concentration)) [μmol Pi/mg min] | sarcoplasmic reticulum Ca^2+-ATPase activity, non-ischemic region, in vitro ([3]; 10^−6 M (high level dosage)) [μmol Pi/mg min] | sarcoplasmic reticulum Ca^2+-ATPase activity, post-ischemic region, in vitro ([3]; 10^−7 M (low concentration)) [μmol Pi/mg min] | sarcoplasmic reticulum Ca^2+-ATPase activity, non-ischemic region, in vitro ([3]; 10^−7 M (low level dosage)) [μmol Pi/mg min]
1 | C/C=C(/C)C(=O)O[C@H]1C(C)=C2[C@H]([C@@H]1OC(=O)CCCCCCC)[C@@](C)(OC(C)=O)C[C@H](OC(=O)CCC)[C@@]1(O)[C@H]2OC(=O)[C@@]1(C)O [Thapsigargin, reference compound] | completely inhibited | – | – | – | – | – | – | –
2 | Cc1ccc(N2CCNCC2)c(S(=O)(=O)O)c1 [medicament of the present invention, 2-(1-piperazinyl)-5-methylbenzenesulfonic acid derivative monohydrate] | – | significantly improved | 0.090±0.008 | 0.088±0.006 | 0.062±0.005 | 0.060±0.003 | 0.057±0.003 | 0.062±0.002

Source: patent US6407113B1, “Medicament for treatment of diastolic dysfunction” (Mitsubishi Chemical Corporation, priority 1998, dated 2002)
